Laboratory results reported in patent US20240300943A1, “NOVEL SALTS OF HETEROCYCLIC COMPOUND AS PROTEIN KINASE INHIBITOR AND USES THEREOF” (HK INNO.N CORPORATION, priority 2021, published 2024).

Key:
[1] = Measurement of water solubility; type: physicochemical; details: saturated solution shaken at room temperature for 24 hours
Procedure: A liquid phase was taken out of the solution and filtered using a 0.22 μm PVDF filter. The filtered liquid phase was diluted 10-fold for LC analysis.
LC analysis was performed by the following method.

[2] = Physical stability evaluation under stress conditions; type: physicochemical
Procedure: In order to evaluate physical stability, samples were packaged in the form of ((LPDE+N2)+silica gel 1 g+LDPE)+Al-Bag, and stored under stress conditions (60° C.±2° C./80% RH±5%) for 2/4 weeks before evaluation.
In table 2, initial is a result measured after preparation of salts, and S2W and S4W are results measured after two and four weeks while being exposed to stress conditions, respectively.

[3] = Hygroscopicity evaluation; type: physicochemical; details: for Individual related material: in %
Description: Samples were placed in a glass desiccator in which relative humidity was adjusted to 33%, 53%, 75%, and 93%, and then stored for two and four weeks to be evaluated.

[4] = test system: DNCB-induced animal model (NC/Nga mice); assay: DNCB-induced atopic dermatitis model (PO); type: in vivo; details: twice a day for 28 days, FIGS. 17 to 19
Procedure: A DNCB-induced animal model was prepared in substantially the same manner as the DNCB model (topical) in Experimental Example 6, except that the phosphate compound was orally administered, and the phosphate compound obtained according to Example 3 was administered. The phosphate compound was orally administered a total of 56 times twice a day for 28 days, and an administration interval was eight hours. The dosage (10 mL/kg) was calculated and determined based on the body weight measured on the day of administration, and intragastrically administered through the mouth of mice using a 1 ml syringe and a feeding needle. The control group was dosed with 0.5% methylcellulose (0.5% MC).

JAK1, 2 = assay: In vitro cell assay, JAK1, 2 (STAT phosphorylation ELISA); type: cell-based; details: read-out: IC50, Cell Biology JAK1, 2
Procedure: UT-7/EPO cell is an erythroleukemic cell line which expresses an EPO receptor, and is frequently used in many previous studies as a model to assess EPO-induced STAT5 phosphorylation mediated by JAK1 and JAK2 activity. Accordingly, in order to evaluate the activity of JAK1 and JAK2, UT-7/EPO cells were prepared.
The test material was dissolved in DMSO, prepared at 10 mM, divided by 20 μL each, and stored at −20° C.
• EPO: 2000 U/0.5 mL of stock was divided by 50 μL each and stored under refrigeration. • IL-2: 200 μg/ml of stock was prepared, divided by 5 μL each, and stored, and then treated at 2 ng/ml. (IL-2 1 μg/ml=13000 U/ml) • IFN-alphaB2: […] of stock was diluted and used, and then treated to reach 30000 U/ml.
• UT-7/EPO cell assay: MEM-alpha (Gibco, cat #12561-056) was prepared to contain 5% FBS and 1% P/S before use. • NK-92 cell assay: A preparation was made to contain HBSS, 1% FBS and 1% P/S before use. • U2OS cell assay: A preparation was made to contain HBSS, 1% FBS and 1% P/S before use.
The cultured cells were centrifuged (1,000 rpm, 5 minutes) and washed with PBS. The size of cell lines and appropriate reaction concentration thereof were set and the cell lines were seeded in a 96-well plate at 1×10^5 to 10^6 cells/well (50 μL/well). […]

JAK1, 3 = assay: Human whole blood assay, JAK1, 3; type: cell-based; details: cytokine-induced STAT phosphorylation
RBL-2H3 cells = assay: IL-4 secretion inhibitory activity in Basophil cells; type: cell-based; details: FIG. 8
Procedure: RBL-2H3 cells were diluted in 10% FBS EMEM medium and divided in a 24-well plate to reach 1×10^5 cells/well. The cells were incubated in a 37° C. incubator for 18 hours or longer.
The test material (Compound 1) was treated at each concentration (at a final concentration of 0, 0.1, 0.5 and 1 μM) under PMA (50 nmol/L) and A23187 (1 μmol/L) stimulation. The cells were incubated in a 37° C. incubator for 24 hours. Then, the reaction was terminated on ice, after the degree of IL-4 secretion in the culture supernatant was measured by IL-4 ELISA kit.

Q: Which Water solubility [1] does the source give for `C[C@@H]1CN(C(=O)CC#N)CC=C1c1cc(NC(=O)C2CC2)nc2[nH]ccc12` [Example 3, (S)—N-(4-(1-(2-cyanoacetyl)-3-methyl-1,2,3,6-tetrahydropyridin-4-yl)-1H-pyrrolo[2,3-b]pyridin-6-yl)cyclopropanecarboxamide] here?
A: Its Water solubility is 3900 µg/mL.

Q: And the C.I quantitative ([2]; Initial)?
A: Its C.I quantitative is 24.0%.

Q: And the “Content (anhydride, as anhydride)” value ([2]; Initial)?
A: Its value is 98.9%.

Q: And the Moisture ([2]; Initial)?
A: Its Moisture is 0.2%.

Q: And the “Purity: Individual related material” value ([2]; Initial)?
A: The value was 0.08%.

Q: What about the “Purity: Total related material” value ([2]; Initial) of the same compound?
A: Its value is 0.41%.

Q: And the C.I quantitative ([2]; S2W: 2 weeks at 60° C./80% RH)?
A: Its C.I quantitative is 24.1%.

Q: What about the “Content (anhydride, as anhydride)” value ([2]; S2W: 2 weeks at 60° C./80% RH) of the same compound?
A: Its value is 99.9%.

Q: And the Moisture ([2]; S2W: 2 weeks at 60° C./80% RH)?
A: Its Moisture is 0.2%.

Q: And the “Purity: Individual related material” value ([2]; S2W: 2 weeks at 60° C./80% RH)?
A: Its value is 0.08%.

Q: And the “Purity: Total related material” value ([2]; S2W: 2 weeks at 60° C./80% RH)?
A: The value was 0.43%.

Q: What about the C.I quantitative ([2]; S4W: 4 weeks at 60° C./80% RH) of the same compound?
A: Its C.I quantitative is 23.8%.

Q: What about the “Content (anhydride, as anhydride)” value ([2]; S4W: 4 weeks at 60° C./80% RH) of the same compound?
A: The value was 99.9%.

Q: What about the Moisture ([2]; S4W: 4 weeks at 60° C./80% RH) of the same compound?
A: The Moisture was 0.2%.

Q: What about the “Purity: Individual related material” value ([2]; S4W: 4 weeks at 60° C./80% RH) of the same compound?
A: Its value is 0.11%.

Q: And the “Purity: Total related material” value ([2]; S4W: 4 weeks at 60° C./80% RH)?
A: The value was 0.53%.

Q: What about the Total related material ([3]; Initial) of the same compound?
A: Its Total related material is 0.37%.

Q: And the Water ([3]; Initial)?
A: The Water was 0.61%.

Q: And the Individual related material ([3]; Initial)?
A: The Individual related material was 0.07.

Q: What about the Total related material ([3]; relative humidity 33%, 2 W) of the same compound?
A: The Total related material was 0.43%.

Q: What about the Water ([3]; relative humidity 33%, 2 W) of the same compound?
A: The Water was 0.41%.

Q: And the Individual related material ([3]; relative humidity 33%, 2 W)?
A: The Individual related material was 0.07.

Q: And the Total related material ([3]; relative humidity 33%, 4 W)?
A: The Total related material was 0.41%.

Q: What about the Water ([3]; relative humidity 33%, 4 W) of the same compound?
A: Its Water is 0.53%.

Q: And the Individual related material ([3]; relative humidity 33%, 4 W)?
A: Its Individual related material is 0.08.

Q: And the Total related material ([3]; relative humidity 53%, 2 W)?
A: The Total related material was 0.43%.

Q: And the Water ([3]; relative humidity 53%, 2 W)?
A: Its Water is 0.53%.

Q: What about the Individual related material ([3]; relative humidity 53%, 2 W) of the same compound?
A: The Individual related material was 0.08.

Q: And the Total related material ([3]; relative humidity 53%, 4 W)?
A: Its Total related material is 0.35%.

Q: And the Water ([3]; relative humidity 53%, 4 W)?
A: Its Water is 0.66%.

Q: What about the Individual related material ([3]; relative humidity 53%, 4 W) of the same compound?
A: The Individual related material was 0.07.

Q: What about the Total related material ([3]; relative humidity 75%, 2 W) of the same compound?
A: The Total related material was 0.44%.

Q: What about the Water ([3]; relative humidity 75%, 2 W) of the same compound?
A: The Water was 0.60%.

Q: What about the Individual related material ([3]; relative humidity 75%, 2 W) of the same compound?
A: The Individual related material was 0.08.

Q: And the Total related material ([3]; relative humidity 75%, 4 W)?
A: The Total related material was 0.39%.

Q: What about the Water ([3]; relative humidity 75%, 4 W) of the same compound?
A: The Water was 0.81%.

Q: And the Individual related material ([3]; relative humidity 75%, 4 W)?
A: The Individual related material was 0.07.

Q: What about the Total related material ([3]; relative humidity 93%, 2 W) of the same compound?
A: Its Total related material is 0.41%.

Q: And the Water ([3]; relative humidity 93%, 2 W)?
A: Its Water is 1.17%.

Q: And the Individual related material ([3]; relative humidity 93%, 2 W)?
A: Its Individual related material is 0.08.

Q: And the Total related material ([3]; relative humidity 93%, 4 W)?
A: The Total related material was 0.33%.

Q: And the Water ([3]; relative humidity 93%, 4 W)?
A: The Water was 0.97%.

Q: And the Individual related material ([3]; relative humidity 93%, 4 W)?
A: Its Individual related material is 0.07.

Q: And the “Symptoms of atopic dermatitis” value [4]?
A: The value was “ameliorates symptoms of atopic dermatitis”.

Q: For `C[C@@H]1CN(C(=O)CC#N)CC=C1c1cc(NC(=O)C2CC2)nc2[nH]ccc12` [Compound 1, (S)—N-(4-(1-(2-cyanoacetyl)-3-methyl-1,2,3,6-tetrahydropyridin-4-yl)-1H-pyrrolo[2,3-b]pyridin-6-yl)cyclopropanecarboxamide], which IC50 (JAK1, 2) is on record?
A: The IC50 was 18 nM.

Q: And the IC50 (JAK1, 3)?
A: Its IC50 is 544 nM.

Q: What about the “IL-4 concentration compared to the negative control group (vehicle)” value (RBL-2H3 cells; 0.5 μM and 1 μM) of the same compound?
A: The value was “remarkably reduced to almost ½ or more”.

Q: And the IL-4 secretion (RBL-2H3 cells; RBL-2H3 cells, PMA and A23187 stimulation, 24 hours)?
A: Its IL-4 secretion is “inhibits IL-4 secretion”.
